Results on 1 compound are retold here after patent publication US11660313B2, “Compositions and methods for application over skin” (Shiseido Company, Limited, priority 2015, dated 2023).

A word on the solubility: it is the concentration that dissolves in the medium under given conditions. Read a low solubility as little dissolved substance.

Values after ≈ are worked out from the molar mass of the structure shown.

The nature of the data set: Solubility of triamcinolone acetonide in receptor fluid. Type of data set: physicochemical. The note with it: not told, aqueous with cosolvent or surfactant or cyclodextrin; PBS at pH 7.4 with 2 wt % hydroxypropyl-beta-cyclodextrin. The protocol:
Receptor fluid preparation: Based on the results of solubility studies, a receptor fluid of phosphate buffered saline (PBS) at pH 7.4 with 2 wt % hydroxypropyl-beta-cyclodextrin (HPBCD) was chosen. […] The preparation and degassing of the receptor fluid was prepared at an appropriate pH and degassing was carried out by filtering the receptor fluid through a ZapCap CR 0.2 μm membrane while pulling vacuum.

Compound `CC1(C)O[C@@H]2C[C@H]3[C@@H]4CCC5=CC(=O)C=C[C@]5(C)[C@@]4(F)[C@@H](O)C[C@]3(C)[C@]2(C(=O)CO)O1` [triamcinolone acetonide] had a solubility of approximately 282 µg/mL (≈ 649 µM).
